Experimental data as given in patent EP3492086B1, “PHARMACEUTICAL COMPOSITION COMPRISING ZEBULARINE (1-(BETA-D-RIBOFURANOSYL)-2(1H)-PYRIMIDINONE) FOR USE IN PROMOTING REGENERATION AND WOUND HEALING” (Uniwersytet Gdanski, priority 2017, dated 2019).

What was measured:
laboratory mice = details: GM284 topical delivery (US2009/0093528A1); XAV-939 (Bastakoty et al. 2015); 1,4-DPCA (Zhang et al. 2015); cited from earlier work
[1] = test system: ear pinnae of the BALB/c 2-month-old female mice; test: Ear pinnae hole closure (ear pinnae injury model, 2 mm through-and-through holes); type: in vivo
Procedure: In order to evaluate the regenerative effect of zebularine, through-and-through holes of 2 mm diameter were made in the ear pinnae of the BALB/c 2-month-old female mice using scissor style ear punch. The mice were randomly divided into two groups consisting of six individuals each. The mice of one group were intraperitoneally injected with 7 doses of zebularine dissolved in saline (50 mg/ml), 1000 mg/kg body weight, on the day of injury directly after punching, and 1, 2, 3, 4, 7, 10 days after injury. The second, control group, was administered with saline.
The experiment was repeated 8 times. Collectively, the experiment was performed for 47 zebularine treated and 48 saline (vehiculum) administered control mice. […] The mean ear hole areas determined on the day 42 post injury were 0.53+/-0.3 and 1.77+/-0.48 sq mm for zebularine treated and saline controls, respectively. The results expressed as percentage of wound closure correspond to 83.2% and 43.6% for the zebularine treated and control group, respectively (Figure 2).The timeline of regeneration process is presented in Figure 3. […] The distributions of ear hole areas on the day 42 after injury were plotted as dot diagrams, where each dot represents an individual ear (Figure 4). The diagrams not only show the biological variation in response to injury and zebularine treatment but clearly expose the contrast between the control and zebularine treated groups. […]

mice = details: 400 mg/kg body weight intraperitoneally for 78 consecutive days (Herranz et al. 2006); cited from earlier work
5-methylcytosine = test: Global DNA methylation in the injury/regeneration area (5-mC DNA ELISA); type: in vivo, mice; details: day 7 following injury; zebularine treated versus control
From the text: DNA methylation in promoter regions is one of key epigenetic mechanisms responsible for gene repression. In order to determine the zebularine demethylating effect on DNA in the regenerating tissues, the content of 5-methylcytosine was compared in the tissues collected from the rings surrounding the ear pinnae holes in the zebularine treated and control animals. For the purpose, the ear punched zebularine treated and control mice were sacrificed at the days 7, 14, 21, and 42 after injury. The ears were collected, and the rings surrounding the holes were excised with a 3 mm biopsy punch, following genomic DNA extraction from thus obtained tissues using DNeasy kit (Qiagen). The levels of 5-methylcytosine were estimated using 5-mC DNA ELISA Kit (ZYMO, D5325) in 100 ng aliquots of genomic DNA.

[2] = test system: Cdkn2a, Msx1, Nanog, Sox2, Bdnf, Sox1, Nog, and Myt1l; test: Expression of pluripotency, developmental and cell cycle genes in the injury/repair area (real-time PCR); type: in vivo; details: day 7 after injury; zebularine treated versus control mice; most remarkable for Nanog and Sox2
From the text: In order to determine the effect of zebularine on the expression of pluripotency, developmental and cell cycle genes, the transcript levels for a panel of selected genes including Cdkn2a, Msx1, Nanog, Sox2, Bdnf, Sox1, Nog, and Myt1l were examined in the injury/repair area, in zebularine treated and control mice at the day 7, 14, 21 and 42 following injury in addition to unwounded ear pinnae designated as day 0. For the purpose, the ear punched mice were sacrificed at selected time points, the ears were collected on RNAlater reagent (Qiagen), stored at -80 °C until the rings surrounding the holes were excised using a 3 mm biopsy punch, following RNA extraction from thus obtained tissues using RNeasy kit (Qiagen). The levels of selected transcripts were determined for 6 mice (8 ears) for each time point using real-time PCR quantitation and Tbp and Actb as the reference genes. […] The most remarkable changes were found for the pluripotency genes, Nanog and Sox2 (Figure 7).

[3] = 37°C, pH 7.4 (Cheng et al. 2003); cited from earlier work
[4] = test system: dorsal skin wounds, mice of the BALB/c strain; test: Dorsal skin excision model, topical delivery, wound closure; type: in vivo
Procedure: The effect of topically delivered zebularine on wound healing was determined using the dorsal skin excision model. Six 2-month-old female mice of the BALB/c strain were used for the experiment. Prior to the injury, the mice were anaesthetized. The dorsal skin was shaved and disinfected. Two symmetrical full-thickness excisional wounds were made in the dorsum using a biopsy punch of 6 mm diameter. Ten microliter of zebularine suspension (200 mg per 1 ml of saline) was dropped directly onto the wound immediately after wounding and once daily for the next four days. Promptly after zebularine application, the wounds were covered with a transparent dressing, and next, the dressing was fastened with adhesive plaster wrapped around the mouse. An analogical experiment was performed for six mice of control group that were not treated with zebularine. The animal study protocol was approved by the Local Ethics Committee for Animal Experimentation at the University of Science and Technology in Bydgoszcz, Poland (Permit No. 49/2016).
The wounds were photographed on the day of injury (d0) and on the day 2, 4, 7, 9, 11, 14, and 18 after wounding. The wound closure progress was tracked by determining wound area using computer-assisted image analysis. […] Complete wound closure was observed on the day 11 for zebularine treated mice and on the day 18 for the control ones (Figure 13).

[5] = estimated (Ben-Kasus et al. 2005); cited from earlier work

Structure (SMILES): O=C(O)c1c[nH]c2c(ccc3cccnc32)c1=O [1,4-DPCA, 4-oxo-1H-1,10-phenanthroline-3-carboxylic acid]
- ear hole closure reported in the literature (result in words) (laboratory mice): partial ear hole closure induction

Structure (SMILES): CC1=C(/C=C/C(C)=C/C=C/C(C)=C/C(=O)O)C(C)(C)CCC1=O [4-keto RA, 4-keto retinoic acid, reference compound]
- ear hole closure (result in words) ([1]; Example 4: i.p., zebularine 1000 mg/kg 7 times, RA or 4-keto RA 16 mg/kg 6 times, followed for 42 days): Partial ear hole closure

Structure (SMILES): Nc1ncn([C@@H]2O[C@H](CO)[C@@H](O)[C@H]2O)c(=O)n1 [5-azacytidine, reference compound]
- effect on ear hole closure (result in words) ([1]; 0.25 mg/kg body weight i.p., 7 times, day 42, 6 mice, compared with zebularine and saline): did not stimulate ear hole closure

Structure (SMILES): CCC(C)(C)C(=O)C(=O)N1CCC[C@H]1c1nnc([C@@H]2CCCN2C(=O)C(=O)C(C)(C)CC)o1 [GM284]
- ear hole closure reported in the literature (result in words) (laboratory mice): Ear hole closure

Structure (SMILES): Oc1nc(-c2ccc(C(F)(F)F)cc2)nc2c1CSCC2 [XAV-939]
- ear hole closure reported in the literature (result in words) (laboratory mice): partial ear hole closure induction

Structure (SMILES): O=c1ncccn1[C@@H]1O[C@H](CO)[C@@H](O)[C@H]1O [zebularine, 1-(β-D-ribofuranosyl)-2(1H)-pyrimidinone]
- toxic effects in mice (mice): No toxic effects
- DNA methylation (5-methylcytosine content) in the injury/regeneration area (5-methylcytosine): significant decrease in DNA methylation
- expression of the selected transcripts in the injury/repair area [2]: Significantly enhanced expression
- half-life in water [3]: 21.2 days
- decrease of the time of wound closure ([4]; 10 microliter of 200 mg/ml suspension after wounding and once daily for four days, 6 mm wounds): approximately 7 days
- day of complete wound closure ([4]; 10 microliter of 200 mg/ml suspension, five applications, control day 18): 11 days
- RNA incorporation relative to DNA incorporation [5]: 7 fold
- mean ear hole areas determined on the day 42 post injury ([1]; 1000 mg/kg body weight intraperitoneally, 7 doses (day 0, 1, 2, 3, 4, 7, 10), 47 mice, saline control 1.77+/-0.48): 0.53+/-0.3 sq mm
- day after injury of maximal ear hole closure ([1]; 1000 mg/kg i.p., 7 doses): 35 days
- day after injury from which significantly better ear hole closure was recorded ([1]; 1000 mg/kg i.p., 7 doses, versus saline control): 21 days
- percentage of wound closure (ear hole closure area) ([1]; day 42 after injury, 1000 mg/kg i.p., 7 doses, control group 43.6%): 83.2%
- time to almost complete closure of the ear pinnae hole ([1]; representative mouse, 1000 mg/kg i.p., 7 doses (Figure 1)): approximately 30 days
- effect of subcutaneous delivery on ear pinnae hole closure ([1]; subcutaneous injections, 1000 mg/kg, 7 doses, day 42 (Figure 6)): statistically significant response but proved less effective than intraperitoneal delivery
